Literature values, collected in patent US7102020B2, “Total synthesis of daurichromenic acid” (priority 2002, dated 2006).

Tested on: HIV
Details: acutely infected H9 cells

## CC(C)=CCC/C(C)=C/CC[C@@]1(C)C=Cc2c(cc(C)c(C(=O)O)c2O)O1 [Daurichromenic acid]
  anti-HIV activity EC50: 5.67 ng/mL
